Experimental findings from ChEMBL document CHEMBL1136115, “Constrained phytoestrogens and analogues as ERbeta selective ligands” (Bioorg Med Chem Lett, 2003) are described below.

The IC50 is the concentration that gives 50% inhibition.

Structures are written as SMILES.

One experiment has as its target T1, Estrogen receptor (Homo sapiens, UniProt P03372).
T1 sequence (P03372 whole entry): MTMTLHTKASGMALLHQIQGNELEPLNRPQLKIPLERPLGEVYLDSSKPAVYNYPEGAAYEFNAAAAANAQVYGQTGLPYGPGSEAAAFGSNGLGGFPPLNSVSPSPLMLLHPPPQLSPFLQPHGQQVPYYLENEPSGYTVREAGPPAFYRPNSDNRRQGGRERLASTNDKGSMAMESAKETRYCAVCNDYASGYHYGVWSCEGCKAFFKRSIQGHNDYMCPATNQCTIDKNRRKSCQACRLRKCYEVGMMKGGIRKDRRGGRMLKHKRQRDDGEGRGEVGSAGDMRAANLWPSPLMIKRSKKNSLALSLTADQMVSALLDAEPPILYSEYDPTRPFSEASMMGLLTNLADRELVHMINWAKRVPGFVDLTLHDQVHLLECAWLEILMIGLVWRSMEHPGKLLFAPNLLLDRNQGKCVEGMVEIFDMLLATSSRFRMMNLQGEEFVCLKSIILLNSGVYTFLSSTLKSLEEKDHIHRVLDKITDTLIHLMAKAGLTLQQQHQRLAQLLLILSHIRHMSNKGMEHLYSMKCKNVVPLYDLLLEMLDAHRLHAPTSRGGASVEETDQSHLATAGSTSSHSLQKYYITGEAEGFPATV

The target of experiment [1] is T2, Estrogen receptor beta (Homo sapiens, UniProt Q92731).
Description: Binding affinity towards human estrogen receptor beta (ERbeta)
In experiment [2] the target is T3, Estrogen receptor (Homo sapiens) (UniProt P03372).
T3 sequence (whole entry): T1 sequence (P03372 whole entry)
As to the kind of experiment: Effective dose in ERalpha-MCF-7 cells. The experiment is classed as functional, cell-based.

Experiment [3] has as its target T2, Estrogen receptor beta. As to the kind of experiment: Effective dose in metallothionein-II using metallothionein assay.
The target in experiment [4] is T3, Estrogen receptor (Homo sapiens). Nature of the experiment: Efficacy in ER alpha-MCF-7 cells. The class given is functional, cell-based.

T2 sequence (Q92731 whole entry): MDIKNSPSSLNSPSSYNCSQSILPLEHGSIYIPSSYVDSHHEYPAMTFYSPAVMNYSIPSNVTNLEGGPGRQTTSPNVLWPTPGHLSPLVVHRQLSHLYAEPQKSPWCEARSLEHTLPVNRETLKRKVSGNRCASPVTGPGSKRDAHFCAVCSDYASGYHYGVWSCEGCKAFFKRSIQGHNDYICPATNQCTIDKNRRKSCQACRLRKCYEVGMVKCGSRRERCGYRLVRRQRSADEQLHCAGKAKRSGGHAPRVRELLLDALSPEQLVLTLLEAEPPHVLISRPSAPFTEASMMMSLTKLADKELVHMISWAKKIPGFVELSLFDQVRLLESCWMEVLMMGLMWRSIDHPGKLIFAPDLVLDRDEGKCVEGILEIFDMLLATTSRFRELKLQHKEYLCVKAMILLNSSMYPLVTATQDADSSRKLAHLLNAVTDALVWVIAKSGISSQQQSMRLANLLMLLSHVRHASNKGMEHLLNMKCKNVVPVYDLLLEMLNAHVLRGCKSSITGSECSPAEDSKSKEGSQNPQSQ

`O=c1c2ccc(O)cc2oc2c1oc1c(Br)cc(O)cc12`: the values for the IC50 on Estrogen receptor and against Estrogen receptor beta [1] were greater than 5000 nM and 1740 nM, respectively.
`O=c1c2cc(O)ccc2oc2c1oc1ccc(O)cc12` yielded an IC50 at Estrogen receptor of 180 nM.
In turn, `O=c1c2ccccc2oc2c1oc1cc(O)ccc12` came in with a half-maximal inhibitory concentration (IC50) against Estrogen receptor greater than 5000 nM.
`N#Cc1cc(O)cc2c1oc1c(=O)c3c(O)cc(O)cc3oc12`: the values for the IC50 on Estrogen receptor and at Estrogen receptor beta [1] were 1550 nM and 1340 nM, respectively.
For `O=c1c2oc3c(Br)cc(O)cc3c2oc2cc(O)cc(O)c12`, in that order: 1260 nM and 343 nM.
Consider `O=c1c2oc3ccc(O)cc3c2oc2cc(O)cc(O)c12`, for which the ED50 in experiment [2] was greater than 500 nM; on Estrogen receptor beta [3], 18 nM. Also, inhibition against Estrogen receptor beta [1] was half-maximal at 42 nM (IC50). The Efficacy in experiment [4] came to 58%.
With `O=c1c2ccc(O)cc2oc2c1oc1ccccc12`, the IC50 at Estrogen receptor was greater than 5000 nM.
For the compound `N#Cc1cc(O)cc2c1oc1c(=O)c3ccc(O)cc3oc12`, the IC50 against Estrogen receptor and on Estrogen receptor beta [1] was greater than 5000 nM throughout.
On Estrogen receptor beta [1], `O=c1c2c(O)cc(O)cc2oc2oc3cc(O)ccc3c12` had an IC50 of 1.7 nM.
